Publication PMC9814642 (2021)

Experiments:
[1] = tested on: HT10 (DNA, G4) AGGGTTAGGTTTAGGGTTAGGG; experiment: time-resolved luminescence at 620 nm; conditions: 100 mM NaCl; 10 mM Tris-HCl pH 7.5; lifetimes 430.7 and 61.4 ns
[2] = tested on: Oxyticha nova G-quadruplex (DNA, G4) GGGGTTTTGGGG; experiment: CD melting; conditions: 100 mM NaCl; 10 mM Tris-HCl pH 7.5; no change of Tm 59.2 °C; binds by end-stacking
[3] = tested on: Oxyticha nova G-quadruplex (DNA, G4) GGGGTTTTGGGG; experiment: UV-vis absorption titration; conditions: 100 mM NaCl; 10 mM Tris-HCl pH 7.5, 25 °C; fit with [DNA] in base pairs, binding size s = 1; per base
[4] = tested on: HT G-quadruplex (DNA, G4) AGGGTTAGGGTTAGGGTTAGGG; experiment: CD melting at 295 nm; conditions: 100 mM NaCl; 10 mM Tris-HCl pH 7.5; derived from two Tm (56.6, 61.0); highest compound concentration, ratio only in Figure 2D
[5] = tested on: HT G-quadruplex (DNA, G4) AGGGTTAGGGTTAGGGTTAGGG; experiment: UV-vis absorption titration; conditions: 100 mM NaCl; 10 mM Tris-HCl pH 7.5, 25 °C; fit with [DNA] in base pairs, binding size s = 2.3; per base
[6] = tested on: ds-DNA (HT with complementary sequence) (DNA, duplex) AGGGTTAGGGTTAGGGTTAGGG/CCCTAACCCTAACCCTAACCCT; experiment: time-resolved luminescence at 620 nm; conditions: 100 mM NaCl; 10 mM Tris-HCl pH 7.5; lifetimes 492 and 88.1 ns
[7] = tested on: HT8 (DNA, G4) AGGGTTATGGTTAGGGTTAGGG; experiment: time-resolved luminescence at 620 nm; conditions: 100 mM NaCl; 10 mM Tris-HCl pH 7.5; lifetimes 1046 and 151.2 ns

binding [1]: yes
ΔTm [2]: 0 °C
K [3]: 990000 M⁻¹
ΔTm [4]: 4.4 °C
K [5]: 5.1e+06 M⁻¹
binding [6]: yes
binding [7]: yes
SMILES: [Ru+2].c1ccc2nc3c4cccnc4c4ncccc4c3nc2c1.c1cnc2c(c1)ccc1cccnc12.c1cnc2c(c1)ccc1cccnc12
